Data reported in the supplement of paper PMC10307832.

How the values were obtained:
Experiment in all cases: relative viability (nuclei count vs DMSO), 5 days (fraction); higher = more cells survive
Vemurafenib + Olaparib = compound: CCCS(=O)(=O)Nc1ccc(F)c(C(=O)c2c[nH]c3ncc(-c4ccc(Cl)cc4)cc23)c1F [Vemurafenib] + O=C(c1cc(Cc2n[nH]c(=O)c3ccccc23)ccc1F)N1CCN(C(=O)C2CC2)CC1 [Olaparib] (partner 8 µM)
Outline: (§1)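 Cells from lung cancer lines were seeded into 1536-well plates and, one day later, dosed by pin tool. Treatments were either a single drug or a fixed dose of an anchor drug with five library-drug doses (not always all listed) in √10 steps. After 5 days, nuclei were stained in a one-step fixation (final 0.05% Triton X-100, 1% formaldehyde, 1 ug/ml Hoechst) and counted on 4× images, and relative viability is the treated-to-vehicle nuclei ratio, as the median of duplicate plates.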

OSI-027 + Foretinib = compound: COc1cccc2cc(-c3nc([C@H]4CC[C@H](C(=O)O)CC4)n4ncnc(N)c34)[nH]c12 [OSI-027] + COc1cc2c(Oc3ccc(NC(=O)C4(C(=O)Nc5ccc(F)cc5)CC4)cc3F)ccnc2cc1OCCCN1CCOCC1 [Foretinib] (partner 0.25 µM)
Outline: as §1

Alpelisib + Foretinib = compound: Cc1nc(NC(=O)N2CCC[C@H]2C(N)=O)sc1-c1ccnc(C(C)(C)C(F)(F)F)c1 [Alpelisib] + COc1cc2c(Oc3ccc(NC(=O)C4(C(=O)Nc5ccc(F)cc5)CC4)cc3F)ccnc2cc1OCCCN1CCOCC1 [Foretinib] (partner 0.25 µM)
Outline: as §1

Alpelisib + Decitabine = compound: Cc1nc(NC(=O)N2CCC[C@H]2C(N)=O)sc1-c1ccnc(C(C)(C)C(F)(F)F)c1 [Alpelisib] + Nc1ncn([C@H]2C[C@H](O)[C@@H](CO)O2)c(=O)n1 [Decitabine] (partner 2 µM)
Outline: as §1

With UMC-11 as the cell line, how does the relative viability (Vemurafenib + Olaparib; first compound 0.03162 µM) read?
Its relative viability is 0.391.

And the relative viability (Vemurafenib + Olaparib; first compound 0.1 µM)?
Its relative viability is 0.4.

What about the relative viability (Vemurafenib + Olaparib; first compound 0.3162 µM) of the same cell line?
The relative viability was 0.392.

And the relative viability (Vemurafenib + Olaparib; first compound 1 µM)?
Its relative viability is 0.375.

And the relative viability (OSI-027 + Foretinib; first compound 0.01 µM)?
The relative viability was 0.903.

What about the relative viability (OSI-027 + Foretinib; first compound 0.03162 µM) of the same cell line?
Its relative viability is 0.866.

What about the relative viability (OSI-027 + Foretinib; first compound 0.1 µM) of the same cell line?
Its relative viability is 0.77.

What about the relative viability (OSI-027 + Foretinib; first compound 0.3162 µM) of the same cell line?
The relative viability was 0.671.

And the relative viability (OSI-027 + Foretinib; first compound 1 µM)?
Its relative viability is 0.444.

What about the relative viability (Alpelisib + Foretinib; first compound 0.04 µM) of the same cell line?
The relative viability was 1.01.

And the relative viability (Alpelisib + Foretinib; first compound 0.1265 µM)?
Its relative viability is 1.05.

What about the relative viability (Alpelisib + Foretinib; first compound 0.4 µM) of the same cell line?
The relative viability was 1.12.

And the relative viability (Alpelisib + Foretinib; first compound 1.265 µM)?
Its relative viability is 0.839.

And the relative viability (Alpelisib + Foretinib; first compound 4 µM)?
The relative viability was 0.875.

What about the relative viability (Alpelisib + Decitabine; first compound 0.04 µM) of the same cell line?
Its relative viability is 0.513.

What about the relative viability (Alpelisib + Decitabine; first compound 0.1265 µM) of the same cell line?
Its relative viability is 0.636.

And the relative viability (Alpelisib + Decitabine; first compound 0.4 µM)?
Its relative viability is 0.693.

And the relative viability (Alpelisib + Decitabine; first compound 1.265 µM)?
The relative viability was 0.535.

What about the relative viability (Alpelisib + Decitabine; first compound 4 µM) of the same cell line?
The relative viability was 0.745.
